Measured values taken from US4786755A, “Diphenic acid monoamides” (Warner-Lambert Company, priority 1986, dated 1988).
Read-outs that look alike come from different tables or passages of the source.

Experiments:
leukotriene receptor = target: T1, leukotriene receptor (Cavia porcellus, UniProt Q2NNR5); experiment: Binding of ^3 H-Leukotriene D4 to Guinea Pig Lung Membranes (RBL); conditions: ^3 H-LTD4, guinea pig lung membranes; read-out: IC50 RBL1
T1 construct: 20 mg original tissue wet weight of guinea pig lung membranes; tissue Kuiper Rabbit Farm, Gary, IN (animals); host or cells: guinea pig lung, crude membranes
T1 sequence (Q2NNR5 1-340): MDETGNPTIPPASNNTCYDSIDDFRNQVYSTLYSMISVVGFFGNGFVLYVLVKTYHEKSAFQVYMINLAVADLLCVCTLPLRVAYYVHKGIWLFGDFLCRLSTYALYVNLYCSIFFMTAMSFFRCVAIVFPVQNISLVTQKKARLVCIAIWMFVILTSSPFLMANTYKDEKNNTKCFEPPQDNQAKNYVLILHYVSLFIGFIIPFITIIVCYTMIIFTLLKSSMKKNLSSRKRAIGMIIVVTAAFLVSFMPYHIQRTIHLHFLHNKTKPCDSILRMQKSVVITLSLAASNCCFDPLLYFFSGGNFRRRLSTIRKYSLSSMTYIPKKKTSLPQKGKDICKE
Experimental: Additionally, the activity, of the compounds having the Formula I of the present invention is determined by the well known leukotriene receptor binding assay that is described by R. F. Bruns, W. J. Thomsen and T. A. Pugsley in Life Sciences, 33, 645 (1983) or the Herxheimer in vivo antiallergy test described in H. Herxheimer, J. Physiol. (London), Vol. 177, p. 251 (1952).
Binding of ^3 H-Leukotriene D4 to Guinea Pig Lung Membranes (RBL)
[14,15-^3 H]leukotriene D4 (^3 H-LTD4) (25 Ci/mmol and 40 Ci/mmol) is purchased from New England Nuclear. Unlabeled LTC4 is a gift of Ono Pharmaceuticals (Japan). LTC4, LTD4, and LTE4 are purchased as methyl esters from Paesel GmbH (Frankfurt, W. Germany). Concentrations of the Paesel leukotrienes are calculated from their absorbance at 280 nm. Leukotriene esters are saponified overnight under N2 in 3.3% potassium carbonate at room temperature. Tritiated leukotrienes are stored as received from New England Nuclear at -20° C. Ono LTC4 (5 μg/ml is stored at -60° C. in phosphate buffer pH 6.8. Saponified Paesel leukotrienes are stored at -60° C. in 3.3% potassium carbonate (pH 9.0-9.5). Aliquots of leukotrienes are taken from stock solutions immediately after thawing, after which the stock solutions are immediately refrozen. 2-Amino-2-(hydroxymethyl)-1,3-propanediol (Tris) is Sigma pH 7.7 pre-set crystals, and dimethylsulfoxide is Aldrich Gold Label.
Preparation of crude lung membranes
Two pairs of lungs (1.3 g) from freshly sacrificed 300 g male guinea pigs (older animals gave substantially lower binding) from Kuiper Rabbit Farm, Gary, IN are disrupted with a Polytron PT 10 (setting 4) for 30 seconds in 20 ml ice-cold 50 mM Tris adjusted with HCl to pH 7.7 at 25° C. (Tris buffer), filtered through a single layer of gauze to remove connective tissue, and centrifuged at 50,000 xg for ten min. The pellet is resuspended by homogenization with a Polytron in 20 ml Tris buffer, centrifuged at 50,000 xg for ten min., resuspended, incubated at 37° C. for 30 minutes, and centrifuged again. The final pellet is resuspended in Tris buffer and either used fresh or stored at -70° C.
All incubations are in triplicate for 60 minutes at 25° C. in 12×75 mm polystyrene tubes containing 1 ml Tris buffer with 20 mg original tissue wet weight of guinea pig lung membranes, 0.2 nM ^3 H-LTD4 (6,000-11,000 cpm), 10 mM MgCl2, and 1% dimethylsulfoxide. Leukotrienes are diluted in Tris buffer. All other test compounds are dissolved at 10 mM in dimethylsulfoxide on the same day as the experiment, and diluted in dimethylsulfoxide to 100× the final incubation concentration. Control incubations receive an equal volume (10 μl) of dimethylsulfoxide; the resulting concentration of dimethylsulfoxide had no effect on binding. ^3 H-LTD4 is diluted to 2 nM in Tris buffer. The membrane suspension (20 mg/0.89 ml) contains sufficient MgCl2 to give 10 mM final concentration in the incubation. […] All additions are performed at 0° C. Immediately after the last addition, the incubation is initiated by agitating the rack of tubes on a vortex mixer and warming to 25° C. in a water bath. Tubes are vortexed at least once more during the incubation to ensure that the membranes remained suspended. Incubations are terminated after 60 minutes by filtering under reduced pressure through 25 mm Whatman GF/B filters followed by rapid washing three times with 4 ml of ice-cold Tris buffer. Filters are added to scintillation vials with 8 ml Formula 947 (New England Nuclear), left overnight, shaken, and the radioactivity counted in a scintillation counter (efficiency 40%). Nonspecific binding, defined as binding of ^3 H-LTD4 in the presence of 100 nM LTC4, is 300-500 cpm for all lots of ^3 H-LTD4. Binding to the filters in the absence of tissue is about 100 cpm, and is not affected by unlabeled LTC4. Specific binding, defined as total binding minus nonspecific binding, varied considerably from lot to lot of ^3 H-LTD4. […]

Human Basophils = experiment: Histamine Release from Human Basophils (HHB); format: cell-based; conditions: Homo sapiens, 33 μM cpd.
From the text: Histamine Release from Human Basophils (HHB) Procedure for Quantitating Active Histamine Release, and its Inhibition by Drugs, from Basophils of Human Blood Using an Automated Fluorometric Histamine Assay
Mediator (histamine) release from human blood basophils is an assay which provides a model for evaluating potential antiallergy (mediator release inhibitors) compounds.
Blood from allergic donors is obtained from volunteers through the Community Research Clinic. The leukocytes are removed after Hespan® sedimentation, washed and concentrated using calcium and magnesium free Hepes buffered saline and resuspended in Hepes Hepes buffered saline with 1 mM calcium and magnesium added back. The cells are incubated briefly at room temperature with either buffer alone (for measuring spontaneous release and challenge agent stimulated release) 6% perchloric acid (for measuring total available histamine in the cells) or drug at various concentrations. The cells are then either treated with buffer alone (to measure control spontaneous and drug effect on spontaneous release) or appropriate challenge agent (e.g., anti-IgE, antigen) mixed and incubated for 45 minutes at 37° C. in a shaking water bath. The reaction is stopped by centrifugation and the supernate is poured into autoanalyzer sample cups and samples assayed for assayed for histamine content using an automated fluorometric assay. By comparing the histamine release of drug-treated cells and the challenge agent controls, drug inhibition of mediator (histamine) release can be evaluated.
Histamine release is induced by (1) an aqueous antigen extract (short rageweed or house dust), or (2) anti-IgE antisera. Whole human blood is obtained from volunteers through the Community Research Clinic (CRC-92). Volunteers are chosen on the basis of adequate histamine release induced by antigen, or antiIgE antisera challenge. Leukocytes are incubated in vitro with the challenge agents at several concentrations. Dose-response curves for each volunteer, using each challenge agent, are generated. Test compounds are evaluated for inhibition of a near maximal response to one or more challenge agents. By including appropriate controls, it is possble to measure the effect of the test compound, at various concentrations, in several ways: (1) the effect of the compound on histamine release for each challenge agent; (2) the effect of the test compound on spontaneous release of histamine in the absence of the challenge agent (buffer alone); and (3) the effect of the test compound on the histamine assay.
Histamine is assayed using an automated continuous flow system which quantitates samples of 0.4 ml or more in volume, and concentrations of approximately 0.5 ng/ml or more. The rate of analysis is 30 samples/hour.
Methods of preparing leukocytes for this assay are described by Theuson, et al, J. of Immunology, Vol. 123, p. 426 (1979).
Samples are run in triplicate, using either 1.5 ml polypropylene capped reaction tubes, or 5.0 ml plastic uncapped tubes. Test compounds and challenge agents are prepared in HACM buffer, as described above. Fixed volume pipettes are used.
Test compound or vehicle control is added to three reaction tubes at 1.5×the final desired concentration (i.e., 400 μl of test compound per 600 μl total reaction volume). One hundred μl of cells is added to each tube and the mixture is incubated for eight minutes at room temperature, and two minutes at 37° C. before antigen or other stimulus challenge. One hundred μl of the challenge agent at 6× the final concentration is then added, and the final mixture is incubated at 37° C. for 45 minutes in a shaking water bath. This ensures that the cell preparation is constantly in suspension. The reaction is stopped by centrifugation at 2000 RPM for three minutes at 4° C. The supernate (.perspectiveto.500 μl) is poured into 2.0 ml autoanalyzer beakers and assayed for histamine by the fluorometric method. […]

[1] = tested on: Isolated Guinea Pig Lung Parenchyma; experiment: Smooth Muscle Receptor Agonism-Antagonism Activity Evaluations In Vitro (IVAS), LTC4-induced contraction; format: cell-based
From the text: Smooth Muscle Receptor Agonism-Antagonism Activity Evaluations In Vitro (IVAS) Isolated Guinea Pig Lung Parenchyma
The potency of a test compound for receptor stimulation or antagonism, for example, can easily be determined since the concentration of the compound to which the muscle cell, or specialized responsive area on this cell, is exposed can be easily controlled and correlated with the recorded activity of muscle contraction or relaxation.
The procedures described herein are specifically concerned with the definition of a test drug action on isolated lung strips. Drug action is characterized either by an action per se on the tissues or by interaction with known smooth muscle receptor stimulants or antagonists.
Usually, the tests will be used to evaluate the ability of a test compound to antagonize the contraction induced by standard agonists in this case LTC4. A relative potency is derived by comparison with one of the standard blocking drugs. In caution, relative potencies of test compounds to known standards are valid only if full dose response curves are generated and the compound compared generate parallel dose/response curves with common maxima. Appropriate "within-trial" comparisons are also necessary.
Molecular antagonists compete with the agonist for the receptor. […] A physiological antagonist produces a response by action on a different receptor that causes an effect in opposition to the agonism.
A permanent isolated bath system is used which facilitates the vertical suspension of a segment of tissue in a small volume of a specific nutritive buffer. Frittered glass terminals provide dispersed bubbles of 95% oxygen and 5% carbon dioxide at the base of the individual tissue baths and the buffer reservoir. All baths and the reservoir are double-jacketed and water at 37° C. is circulated through the jacket of the baths to provide stable temperature regulation. The baths are arranged so that fresh solution from the reservoir passes through a jacketed glass coil to the base of the bath. The bubbling gas stirs the bath solution. During equilibration, fresh solution enters and excess solution is allowed to overflow. Unless a particular drug is required throughout the experiment and it is incorporated in the buffer, individual drugs are introduced directly into the bath by long hypodermic needles to the base of the bath without disturbing the tissue. Drugs are removed by rapidly draining the tissue bath from the bottom and refilling. Tissues are washed a minimum of six times. The emptying and refilling sequence takes only five seconds.
The contraction and relaxation of the smooth muscle preparation can be recorded either isotonically (change in length) or isometrically (change in tension). Isometric transducers are more sensitive and proportional. Isometric contractions are recorded electronically using Grass FT 0.03C force displacement transducers and Beckman Dynagraph recorders. The tissue is suspended vertically with one end of the segment anchored to the bottom of the bath and the other end attached to the mechanical electrical transducer muscle level. The electrical output of this transducer moves a pen on a moving chart in proportion to the force displacement.
Lung tissue is obtained from normal male guinea pigs. The heart and lungs are removed as a unit, placed in buffer, and the lungs are perfused with buffer by the spontaneously beating heart for several minutes.

[2] = Tripeptide challenge, read-out: HHB (Tripeptide), percent inhibition of histamine release
[3] = antigen challenge, read-out: HHB (antigen), percent inhibition of histamine release

IC50 (leukotriene receptor)	Structure (SMILES)	inhibition at 33 µM (Human Basophils; [2])	inhibition at 33 µM (Human Basophils; [3])	response (r1), of maximum ([1]; 1 ng/ml LTC4, isolated lung strip)	contraction, of maximum ([1]; 3×10^-5 M, isolated guinea pig lung strip)	minimal effective concentration ([1]; Cavia porcellus, isolated guinea pig lung strip, read-out: threshold dose (contraction of lung strip))
16.5 µM	Cc1ccc(CCc2ccc(NC(=O)c3ccccc3-c3ccccc3C(=O)O)cc2)cc1 [Example 18, [1,1'-Biphenyl]-2-carboxylic acid, 2'-[[[4-[2-(4-methylphenyl)ethyl]phenyl]amino]carbonyl]-]	98%	60%	–	–	–
10.5 µM	O=C(O)c1ccccc1-c1ccccc1C(=O)Nc1cccc(Cc2ccc(Cl)c(Cl)c2)c1 [Example 17, [1,1'-Biphenyl]-2-carboxylic acid, 2'-[[[3-[(3,4-dichlorophenyl)methyl]phenyl]amino]carbonyl]-]	97%	–	–	–	–
3.7 µM	CC(C)(C)c1cc(CCc2ccc(NC(=O)c3ccccc3-c3ccccc3C(=O)O)cc2)cc(C(C)(C)C)c1O [Example 14, [1,1'-Biphenyl]-2-carboxylic acid, 2'-[[[4-[2-[3,5-bis(1,1-dimethylethyl)-4-hydroxyphenyl]ethyl]phenyl]amino]carbonyl]-]	96%	41%	–	–	–
–	CCCCC/C=C\C\C=C/C=C/C=C/[C@@H](SC[C@H](NC(=O)CC[C@H](N)C(=O)O)C(=O)NCC(=O)O)[C@@H](O)CCCC(=O)O [LTC4, leukotriene C4]	–	–	15-20%	–	–
13.7 µM	O=C(O)c1ccccc1-c1ccccc1C(=O)Nc1ccccc1CCc1ccc(Cl)c(Cl)c1 [Example 12, [1,1'-Biphenyl]-2-carboxylic acid, 2'-[[[2-[2-(3,4-dichlorophenyl)ethyl]phenyl]amino]carbonyl]-]	99%	-42%	–	–	–
9.7 µM	O=C(O)c1ccccc1-c1ccccc1C(=O)Nc1ccc(CCc2ccc(C(F)(F)F)cc2)cc1 [Example 10]	74%	62%	–	–	–
–	NCCc1c[nH]cn1 [histamine]	–	–	–	approximately 75%	~3 µM
